Converted amounts (≈) assume the structure as drawn.
Test: solubility of CBD in water and other aqueous solvents with Captisol (SAE-CD) and/or added polymers, surfactants, pH
Type: physicochemical
Excerpt: In some embodiments the addition of water soluble polymers and/or surfactants increases the solubility of the CBD/Captisol mixture. Therefore, in some embodiments the formulations may include the addition of these or other ingredients as solubility enhancers.

SMILES: C=C(C)[C@@H]1CCC(C)=C[C@H]1c1c(O)cc(CCCCC)cc1O [CBD, cannabidiol]
- solubility (aqueous solvent with 0.5% Poloxamer 188, without Captisol, aqueous with cosolvent or surfactant or cyclodextrin, Captisol 0%, 0.5% Poloxamer 188): 133 µg/mL (≈ 0.423 mM)
- solubility (aqueous solvent, aqueous with cosolvent or surfactant or cyclodextrin, Captisol 0%, 1% CMC): 593 µg/mL (≈ 1.89 mM)
- solubility (aqueous solvent, aqueous with cosolvent or surfactant or cyclodextrin, Captisol 0%, 1% CrEL): 8960 µg/mL (≈ 28.5 mM)
- solubility (aqueous solvent, aqueous with cosolvent or surfactant or cyclodextrin, Captisol 0%, 1% HPMC): 590 µg/mL (≈ 1.88 mM)
- solubility (aqueous solvent, aqueous with cosolvent or surfactant or cyclodextrin, Captisol 0%, 1% PVP): 602 µg/mL (≈ 1.92 mM)
- solubility (aqueous solvent, aqueous with cosolvent or surfactant or cyclodextrin, Captisol 0%, 1% Tween 80): 4200 µg/mL (≈ 13.3 mM)
- solubility (aqueous solvent, aqueous with cosolvent or surfactant or cyclodextrin, Captisol 0%, 5% CrEL): 21900 µg/mL (≈ 69.7 mM)
- solubility (aqueous solvent, aqueous with cosolvent or surfactant or cyclodextrin, Captisol 0%, 10% CrEL): 47800 µg/mL (≈ 152 mM)
- solubility (aqueous solvent, aqueous with cosolvent or surfactant or cyclodextrin, Captisol 20%, 0.5% CMC): 14.5 µg/mL (≈ 0.0461 mM)
- solubility (aqueous solvent, aqueous with cosolvent or surfactant or cyclodextrin, Captisol 20%, 0.5% HPMC): 1320 µg/mL (≈ 4.2 mM)
- solubility (aqueous solvent, aqueous with cosolvent or surfactant or cyclodextrin, Captisol 20%, 0.5% PVP): 1180 µg/mL (≈ 3.74 mM)
- solubility (aqueous solvent, aqueous with cosolvent or surfactant or cyclodextrin, Captisol 20%, 0.5% Poloxamer 188): 1410 µg/mL (≈ 4.49 mM)
- solubility (aqueous solvent, aqueous with cosolvent or surfactant or cyclodextrin, Captisol 20%, 1% CMC): 1710 µg/mL (≈ 5.44 mM)
- solubility (aqueous solvent, aqueous with cosolvent or surfactant or cyclodextrin, Captisol 20%, 1% CrEL): 4280 µg/mL (≈ 13.6 mM)
- solubility (aqueous solvent, aqueous with cosolvent or surfactant or cyclodextrin, Captisol 20%, 1% HPMC): 1550 µg/mL (≈ 4.94 mM)
- solubility (aqueous solvent, aqueous with cosolvent or surfactant or cyclodextrin, Captisol 20%, 1% PVP): 1520 µg/mL (≈ 4.82 mM)
- solubility (aqueous solvent, aqueous with cosolvent or surfactant or cyclodextrin, Captisol 20%, 1% Tween 80): 2010 µg/mL (≈ 6.4 mM)
- solubility (aqueous solvent, aqueous with cosolvent or surfactant or cyclodextrin, Captisol 20%, 2% CMC): 365 µg/mL (≈ 1.16 mM)
- solubility (aqueous solvent, aqueous with cosolvent or surfactant or cyclodextrin, Captisol 20%, 2% PVP): 840 µg/mL (≈ 2.67 mM)
- solubility (aqueous solvent, aqueous with cosolvent or surfactant or cyclodextrin, Captisol 20%, 2% Tween 80): 720 µg/mL (≈ 2.29 mM)
- solubility (aqueous solvent, aqueous with cosolvent or surfactant or cyclodextrin, Captisol 20%, 5% CrEL): 13500 µg/mL (≈ 43 mM)
- solubility (aqueous solvent, aqueous with cosolvent or surfactant or cyclodextrin, Captisol 20%, 5% CrEL and EtOH): 21500 µg/mL (≈ 68.4 mM)
- solubility (aqueous solvent, aqueous with cosolvent or surfactant or cyclodextrin, Captisol 20%, 10% CrEL): 46700 µg/mL (≈ 149 mM)
- solubility (aqueous solvent, aqueous with cosolvent or surfactant or cyclodextrin, Captisol 20%, EtOH (line below the 10% heading)): 920 µg/mL (≈ 2.93 mM)
- solubility (aqueous solvent, aqueous with cosolvent or surfactant or cyclodextrin, Captisol 20%, additive None): 850 µg/mL (≈ 2.7 mM)
- solubility (aqueous solvent, aqueous with cosolvent or surfactant or cyclodextrin, Captisol 40%, 0.5% CMC): 3270 µg/mL (≈ 10.4 mM)
- solubility (aqueous solvent, aqueous with cosolvent or surfactant or cyclodextrin, Captisol 40%, 0.5% HPMC): 2680 µg/mL (≈ 8.52 mM)
- solubility (aqueous solvent, aqueous with cosolvent or surfactant or cyclodextrin, Captisol 40%, 0.5% PVP): 2950 µg/mL (≈ 9.37 mM)
- solubility (aqueous solvent, aqueous with cosolvent or surfactant or cyclodextrin, Captisol 40%, 0.5% Tween 80): 2020 µg/mL (≈ 6.42 mM)
- solubility (aqueous solvent, aqueous with cosolvent or surfactant or cyclodextrin, Captisol 40%, 1% CMC): 2640 µg/mL (≈ 8.38 mM)
- solubility (aqueous solvent, aqueous with cosolvent or surfactant or cyclodextrin, Captisol 40%, 1% HPMC): 3450 µg/mL (≈ 11 mM)
- solubility (aqueous solvent, aqueous with cosolvent or surfactant or cyclodextrin, Captisol 40%, 1% PVP): 3280 µg/mL (≈ 10.4 mM)
- solubility (aqueous solvent, aqueous with cosolvent or surfactant or cyclodextrin, Captisol 40%, 1% Tween 80): 2650 µg/mL (≈ 8.43 mM)
- solubility (aqueous solvent, aqueous with cosolvent or surfactant or cyclodextrin, Captisol 40%, additive None): 2800 µg/mL (≈ 8.9 mM)
- solubility (aqueous solvent, aqueous with cosolvent or surfactant or cyclodextrin, Captisol 0%, 5% CrEL and EtOH): 36200 µg/mL (≈ 115 mM)
- solubility (aqueous solvent, pH 2, aqueous with cosolvent or surfactant or cyclodextrin, Captisol 20%, pH ~2): 2480 µg/mL (≈ 7.89 mM)
- solubility (aqueous solvent, pH 4, aqueous with cosolvent or surfactant or cyclodextrin, Captisol 20%, pH 4): 650 µg/mL (≈ 2.07 mM)
- solubility (aqueous solvent, pH 7.4, aqueous with cosolvent or surfactant or cyclodextrin, Captisol 20%, PBS (pH = 7.4)): 720 µg/mL (≈ 2.29 mM)
- solubility (aqueous solvent, pH 7.4, aqueous with cosolvent or surfactant or cyclodextrin, Captisol 40%, PBS (pH = 7.4)): 2300 µg/mL (≈ 7.31 mM)
- solubility (aqueous solvent, pH 9, aqueous with cosolvent or surfactant or cyclodextrin, Captisol 20%, pH 9): 850 µg/mL (≈ 2.7 mM)
- solubility (aqueous solvent, water, Captisol 0%, additive None): 0.26 µg/mL (≈ 0.000827 mM)
- effect of complexation with Captisol on solubility of CBD in water and other aqueous solvents (complexation with an SAE-CD (Captisol)): significantly increased

Reference: US20190030170A1, “CANNABINOID FORMULATIONS WITH IMPROVED SOLUBILITY” (Vireo Health LLC, priority 2016, published 2019)
